What was measured:
h17β-HSD2 = target: T1, h17β-HSD2 (Homo sapiens, UniProt P37059); test: Inhibition of h17β-HSD2 in a cellular assay (MDA-MB-231); format: cell-based; details: MDA-MB-231 cell line, substrate E2 [200 nM], 6 h; for inhibition at 0.25 µM: MDA-MB-231, 250 nM, read-out: % inh HSD2 at 250 nM; for inhibition at 1.25 µM: MDA-MB-231, 1250 nM, read-out: % inh HSD2 at 1250 nM
T1 sequence (P37059 1-387): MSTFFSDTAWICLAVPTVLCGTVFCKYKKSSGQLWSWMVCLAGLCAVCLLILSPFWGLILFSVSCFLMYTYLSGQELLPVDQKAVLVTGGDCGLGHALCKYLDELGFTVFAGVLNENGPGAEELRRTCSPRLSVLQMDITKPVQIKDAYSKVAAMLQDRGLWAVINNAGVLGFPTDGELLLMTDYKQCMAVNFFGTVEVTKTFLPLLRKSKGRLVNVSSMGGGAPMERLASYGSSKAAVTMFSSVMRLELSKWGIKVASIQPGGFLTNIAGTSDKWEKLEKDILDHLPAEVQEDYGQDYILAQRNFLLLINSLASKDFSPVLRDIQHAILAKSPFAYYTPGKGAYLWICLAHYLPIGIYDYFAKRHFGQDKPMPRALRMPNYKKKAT
Procedure: Cellular h17β-HSD2 inhibitory activity is measured using the breast cancer cell-line MDA-MB-231[32] (17β-HSD1 activity negligible). [^3H]-E2 (200 nM) is taken as substrate and is incubated with the inhibitor for 6 h at 37°C. After ether extraction, substrate and product are separated by HPLC and detected with a radioflow detector. Potency is evaluated as percentage of inhibition (inhibitor concentrations used: 1250 nM and 250 nM).

ERα = target: T2, ERα (Homo sapiens, UniProt P03372); test: Estrogen receptor affinity in a cell-free assay (ERα); format: binding; details: 1000-fold excess relative to E2; recombinant human ERα
T2 sequence (P03372 1-595): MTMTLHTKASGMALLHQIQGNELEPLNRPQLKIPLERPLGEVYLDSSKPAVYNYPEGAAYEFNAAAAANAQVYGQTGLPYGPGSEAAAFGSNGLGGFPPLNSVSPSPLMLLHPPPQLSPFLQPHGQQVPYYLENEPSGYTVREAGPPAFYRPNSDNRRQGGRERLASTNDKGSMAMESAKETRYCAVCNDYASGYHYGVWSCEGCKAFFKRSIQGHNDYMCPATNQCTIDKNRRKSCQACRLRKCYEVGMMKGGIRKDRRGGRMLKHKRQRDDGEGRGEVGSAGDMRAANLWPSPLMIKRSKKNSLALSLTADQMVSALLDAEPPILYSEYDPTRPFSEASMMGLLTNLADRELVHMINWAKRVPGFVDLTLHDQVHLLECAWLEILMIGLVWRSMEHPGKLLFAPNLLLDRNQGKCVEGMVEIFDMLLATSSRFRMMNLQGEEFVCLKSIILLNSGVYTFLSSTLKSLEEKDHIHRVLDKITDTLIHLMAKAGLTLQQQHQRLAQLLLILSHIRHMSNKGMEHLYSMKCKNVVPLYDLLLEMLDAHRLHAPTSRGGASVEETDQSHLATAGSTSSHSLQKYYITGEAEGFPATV
Procedure: The binding affinity of selected compounds to ERα and ERβ was determined according to the recommendations of the US Environmental Protection Agency (EPA) by their Endocrine Disruptor Screening Program (EDSP)[24] using recombinant human proteins.
The potential inhibitors were dissolved in DMSO (5% final concentration). […] After incubation, ligand-receptor complexes were selectively bound to hydroxyapatite (83.5 g/LinTE-buffer). The bound complex was washed three times and resuspended in ethanol. For radiodetection, scintillator cocktail (Quickszint 212, Zinsser Analytic, Frankfurt) was added and samples were measured in a liquid scintillation counter (1450 LSC & Luminescence Counter, Perkin Elmer).
After the assay was established and validated, a modification was made to increase throughput.

[1] = Metabolic stability in a cell-free assay (liver S9 fraction); format: in vitro ADME; details: human liver S9 fraction 1 mg/ml, NADPH regenerating system, UDPGA, PAPS, 37°C, inhibitor 1 μM; for half-life at 1 μM: pooled liver S9 fraction, read-out: Inhibitor t1/2
Procedure: Compounds 7a, 8a, 16a, 19a, 22a, 27a and 27 were tested according to established method[33–35]For evaluation of phase I and II metabolic stability 1 μM compound was incubated with 1 mg/ml pooled mammalian liver S9 fraction (BD Gentest), 2 mM NADPH regenerating system, 1 mM UDPGA and 0.1 mM PAPS at 37°C for 0, 5, 15 and 60 minutes at a final volume of 100 μL. The incubation was stopped by precipitation of S9 enzymes with 2 volumes of cold acetonitrile containing internal standard. Concentration of the remaining test compound at the different time points was analyzed by LC-MS/MS and used to determine half-life (t1/2).

m17β-HSD1 = target: T3, m17β-HSD1 (Mus musculus, UniProt P51656); test: Inhibition of m17β-HSD1 in cell-free assay; format: biochemical; details: recombinant m17β-HSD1, substrate E1 [500 nM], NADPH [500 μM]
T3 construct: host or cells: HEK 293 cells, transient transfection, 1000 g supernatant of the lysate
T3 sequence (P51656 1-344): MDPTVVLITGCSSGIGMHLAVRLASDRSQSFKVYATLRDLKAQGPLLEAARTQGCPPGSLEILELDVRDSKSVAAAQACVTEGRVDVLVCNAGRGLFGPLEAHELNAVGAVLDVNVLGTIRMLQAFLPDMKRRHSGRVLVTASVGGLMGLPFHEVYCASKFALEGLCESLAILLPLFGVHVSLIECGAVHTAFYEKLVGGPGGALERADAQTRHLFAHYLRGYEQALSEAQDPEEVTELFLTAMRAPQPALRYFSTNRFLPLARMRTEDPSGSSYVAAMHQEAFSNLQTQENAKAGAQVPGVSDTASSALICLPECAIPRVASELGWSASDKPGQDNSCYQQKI
Procedure: h17β-HSD2, h17β-HSD1, m17β-HSD2 and m17β-HSD1 cell-free assays were performed similarly, by incubating enzyme, tritiated substrate, cofactor and inhibitor, according to described procedures.
Recombinant m17β-HSD1 enzyme was produced by transfection of HEK 293 cells with a m17β-HSD1 expression plasmid (coding sequence of NM_010475 in pCMV6Entry vector, OriGene Technologies, Inc.) according to a described procedure. 48 hours after transfection cells were homogenized by sonication (3 x 10 s) in a buffer containing saccharose (40 mMTris, 250 mM saccharose, 5 mM EDTA, 7 mM DTT, 1 mM PMSF, pH 7,5). Cell lysate was centrifuged (1000 g, 15 min, 4°C) and 20% glycerol was added to the supernatant before aliquots were frozen and stored at -70°C.
The 17β-HSD1 inhibition assay was performed similarly to the h17β-HSD2 test. The human cytosolic enzyme was incubated with NADH [500 μM] while the mouse recombinant enzyme was reacted with NADPH [500 μM].Test compound and a mixture of unlabelled- and [^3H]-E1 (final concentration: 500 nM, 0.15 μCi) were added and mixed for 10 min at 37°C. Further treatment of the samples and HPLC separation was carried out as mentioned above for h17β-HSD2.

SMILES | inhibition at 0.25 µM (h17β-HSD2) | inhibition at 1.25 µM (h17β-HSD2) | displacement of E2 from ERα (ERα) | half-life at 1 μM [1] | inhibition of m17β-HSD1 at 1 μM (m17β-HSD1) | Inhibitor t1/2 [1]
COc1cccc(N(C)C(=O)c2ccc(-c3cccc(C)c3)cc2)c1 [Compound 6a, N-(3-methoxyphenyl)-N,3'-dimethyl-[1,1'-biphenyl]-4-carboxamide] | 60% | ~90% | ≤ 20% | 1.77 h | – | –
COc1cccc(N(C)C(=O)c2ccc(-c3ccc(C)c(C)c3)cc2)c1 [Compound 17a, N-(3-methoxyphenyl)-N,3',4'-trimethyl-[1,1'-biphenyl]-4-carboxamide] | 66% | ~90% | ≤ 20% | 1.78 h | None of the tested compounds showed any inhibition | –
Cc1cccc(N(C)C(=O)c2ccc(-c3cccc(C)c3F)cc2)c1 [Compound 21a, 2'-Fluoro-N,3'-dimethyl-N-(m-tolyl)-[1,1'-biphenyl]-4-carboxamide] | – | – | ≤ 20% | – | None of the tested compounds showed any inhibition | –
Cc1cccc(-c2ccc(C(=O)N(C)Cc3cccc(O)c3)cc2)c1F [Compound 25, 2'-Fluoro-N-(3-hydroxybenzyl)-N,3'-dimethyl-[1,1'-biphenyl]-4-carboxamide] | 67% | ~90% | ≤ 20% | 0.1 h | None of the tested compounds showed any inhibition | short half-life

Source: article PMC4521925, “17β-Hydroxysteroid Dehydrogenase Type 2 Inhibition: Discovery of Selective and Metabolically Stable Compounds Inhibiting Both the Human Enzyme and Its Murine Ortholog” (PLoS ONE, 2015)
